Measured values: patent publication US8575091B1, “Amylin analogues and pharmaceutical compositions thereof” (Novo Nordisk A/S, priority 2012, dated 2013)
Numbered stars: 1 amine (or outer) side, 2 acyl side, 3 side chain; on linkers, the order of the positions; unused ones are H or OH. Bridge positions count the residues as written; N and C are the ends. Side chains are listed from the residue outwards. Peptide text beside a SMILES is read from it. * marks the point of attachment. C20 diacid = O=C(O)CCCCCCCCCCCCCCCCCCC(=O)*; γGlu = O=C(O)[C@H](CCC(=O)[*:2])N[*:1]

What was measured:
[1] = target: T1, human calcitonin receptor (Homo sapiens, UniProt P30988); experiment: Assay (II)a functional assay, human calcitonin receptor (CRE luciferase, BHK cells);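 note: luminescence from a CRE-driven luciferase reporter, read by single photon counting after cells were exposed to test samples for 3 h at 37 °C under 5% CO2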; type: cell-based; settings: read-out: hCTR funct. EC50
T1 construct: expressed in transfected cells
T1 sequence (P30988 25-474): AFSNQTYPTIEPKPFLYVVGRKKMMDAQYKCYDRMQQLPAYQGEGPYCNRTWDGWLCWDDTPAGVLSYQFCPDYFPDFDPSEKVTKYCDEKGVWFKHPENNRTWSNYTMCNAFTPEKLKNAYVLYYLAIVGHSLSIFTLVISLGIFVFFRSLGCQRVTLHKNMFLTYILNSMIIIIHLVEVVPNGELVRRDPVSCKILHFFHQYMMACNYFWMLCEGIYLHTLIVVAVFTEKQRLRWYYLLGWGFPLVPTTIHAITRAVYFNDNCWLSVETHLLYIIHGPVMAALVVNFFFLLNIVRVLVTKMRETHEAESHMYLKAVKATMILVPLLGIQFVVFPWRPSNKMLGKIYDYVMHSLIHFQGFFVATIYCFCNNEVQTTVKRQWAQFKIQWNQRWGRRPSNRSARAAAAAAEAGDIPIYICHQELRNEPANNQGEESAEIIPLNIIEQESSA

[2] = target: T2, human amylin receptor (amylin 3(a) receptor: human calcitonin receptor + RAMP-3) (Homo sapiens, UniProt O60896+P30988); experiment: Assay (II)a functional assay, human amylin receptor (CRE luciferase, BHK cells); type: cell-based; settings: for EC50: functional assay, human amylin receptor, read-out: hAmylin-R funct. EC50
T2 construct: expressed in transfected cells
T2 sequence (P30988 25-474): T1 sequence (P30988 25-474)
T2 sequence (O60896 24-148 partner): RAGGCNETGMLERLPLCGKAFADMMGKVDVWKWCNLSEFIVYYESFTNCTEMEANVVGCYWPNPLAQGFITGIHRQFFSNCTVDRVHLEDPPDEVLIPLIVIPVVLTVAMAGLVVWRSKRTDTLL

[3] = target: T1, human calcitonin receptor; experiment: Assay (VII) binding to the human calcitonin receptor (SPA, 125I-Calcitonin); settings: read-out: hCTR bind IC50;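 note: cell membranes coupled to SPA beads, competitive displacement read by scintillation counting, IC50 derived from a one-site competition fit as a measure of receptor affinity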
[4] = target: T3, human amylin receptor (Homo sapiens, UniProt O60896+P30988); experiment: Assay (V) binding to the human amylin receptor (SPA, 125I-rat amylin); settings: human amylin receptor membranes, SPA; read-out: hAmylin-R bind IC50
T3 construct: expressed in transfected cells
T3 sequence (P30988 25-474): T1 sequence (P30988 25-474)
T3 sequence (O60896 24-148 partner): T2 sequence (O60896 24-148 partner)
How it was run: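 SPA competition binding on membranes from Amylin 3(a)/CRE-luc cells, 35 ng/μL membranes with 0.05 mg/well beads. Buffer 50 mM Hepes pH 7.4, 1 mM CaCl2, 5 mM MgCl2, 0.1% OA, 0.02% Tween20. IC50 from one-site competition fit as affinity measure.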

[5] = system: Wistar rats; experiment: Assay (XII) single subcutaneous administration, plasma calcium in rats; type: in vivo, rat; settings: for Plasma calcium red (%) 0-12 h: single s.c., maximal reduction 0-12 h, compared to vehicle; for suppression of plasma calcium level relative to vehicle: single subcutaneous, over 24 hours
Experimental: Assay (XII)—Effect from Single Subcutaneous Administration of Analogue on Plasma Calcium in Rats
Male Wistar rats (Taconic Europe, ˜250 g at test date) were acclimatized to handling prior to the study. Rats were divided in groups of five and subcutaneously dosed with test compound at time=0. At time T=−15 min; 1 h, 2 h, 4 h, 7 h, 12 h, and 24 h a blood sample was obtained and heparin stabilized plasma was analysed for total calcium (Cobas, Hitachi). Data are illustrated in graphs as mean±SEM.

Structure (SMILES): CC[C@H](C)[C@H](NC(=O)[C@H](C)NC(=O)CNC(=O)[C@H](Cc1ccccc1)NC(=O)[C@H](CC(N)=O)NC(=O)[C@@H]1CCCN1C(=O)[C@H](CO)NC(=O)[C@H](CO)NC(=O)[C@H](Cc1c[nH]cn1)NC(=O)[C@H](CCCNC(=N)N)NC(=O)[C@H](CC(C)C)NC(=O)[C@H](Cc1ccccc1)NC(=O)[C@H](CCC(=O)O)NC(=O)[C@H](C)NC(=O)[C@H](CC(C)C)NC(=O)[C@H](CCCNC(=N)N)NC(=O)[C@H](CCC(N)=O)NC(=O)[C@@H](NC(=O)[C@H](C)NC(=O)[C@@H]1CSSC[C@H](NC(=O)[C@@H](N)CCCCNC(=O)CC[C@H](NC(=O)CCCCCCCCCCCCCCCCCCC(=O)O)C(=O)O)C(=O)N[C@@H](CC(N)=O)C(=O)N[C@@H]([C@@H](C)O)C(=O)N[C@@H](C)C(=O)N[C@@H]([C@@H](C)O)C(=O)N1)[C@@H](C)O)C(=O)N1CCC[C@H]1C(=O)N[C@@H](CO)C(=O)N[C@@H](CO)C(=O)N[C@H](C(=O)N[C@@H](CC(N)=O)C(=O)N[C@H](C(=O)NCC(=O)N1CCC[C@H]1C(=O)N[C@@H](Cc1c[nH]cn1)C(=O)N[C@H](C(=O)N[C@@H](Cc1ccc(O)cc1)C(N)=O)[C@@H](C)O)C(C)C)[C@@H](C)O [Example 118] (H-K([γGlu-C20 diacid])CNTATCATQRLAEFLRHSSPNFGAIPSSTNVGPHTY-NH2; disulfide 2-7)
- EC50 [1]: 1.45 nM
- EC50 [2]: 0.101 nM
- IC50 [3]: 3.8 nM
- IC50 [4]: 0.179 nM
- Plasma calcium red (%) 0-12 h ([5]; 30 nmol/kg): 26%

Structure (SMILES): CC[C@H](C)[C@H](NC(=O)[C@H](C)NC(=O)CNC(=O)[C@H](Cc1ccccc1)NC(=O)[C@H](CC(N)=O)NC(=O)[C@@H]1CCCN1C(=O)[C@H](CO)NC(=O)[C@H](CO)NC(=O)[C@H](Cc1c[nH]cn1)NC(=O)[C@H](CCCNC(=N)N)NC(=O)[C@H](CC(C)C)NC(=O)[C@H](Cc1ccccc1)NC(=O)[C@H](CCC(=O)O)NC(=O)[C@H](C)NC(=O)[C@H](CC(C)C)NC(=O)[C@H](CCCNC(=N)N)NC(=O)[C@H](CCC(N)=O)NC(=O)[C@@H](NC(=O)[C@H](C)NC(=O)[C@@H]1CSSC[C@H](NC(=O)[C@@H](N)CCCCNC(=O)CC[C@H](NC(=O)CCCCCCCCCCCCCCCCCCC(=O)O)C(=O)O)C(=O)N[C@@H](CC(N)=O)C(=O)N[C@@H]([C@@H](C)O)C(=O)N[C@@H](C)C(=O)N[C@@H]([C@@H](C)O)C(=O)N1)[C@@H](C)O)C(=O)N1CCC[C@H]1C(=O)N[C@@H](CO)C(=O)N[C@@H](CO)C(=O)N[C@H](C(=O)N[C@@H](CC(N)=O)C(=O)N[C@H](C(=O)NCC(=O)N[C@@H](CO)C(=O)N[C@@H](CCCNC(=N)N)C(=O)N[C@H](C(=O)N[C@@H](Cc1ccc(O)cc1)C(N)=O)[C@@H](C)O)C(C)C)[C@@H](C)O [Example 51] (H-K([γGlu-C20 diacid])CNTATCATQRLAEFLRHSSPNFGAIPSSTNVGSRTY-NH2; disulfide 2-7)
- EC50 [1]: 5.22 nM
- Ratio hCT/hAmylin funct. ([2]; Table 6, human functional selectivity (hCTR EC50 / hAmylin-R EC50)): 14.0
- Ratio hCT/hAmylin funct. ([2]; Table 6a, human functional selectivity (hCTR EC50 / hAmylin-R EC50), at least 5): 14.0
- Ratio hCT/hAmylin funct. ([2]; Table 6i, hCTR funct. EC50 / hAmylin-R funct. EC50): 14.0
- Ratio hCT/hAmylin funct. ([2]; Table 6j, hCTR funct. EC50 / hAmylin-R funct. EC50): 14.0
- Ratio hCT/hAmylin funct. ([2]; Table 6k, hCTR funct. EC50 / hAmylin-R funct. EC50): 14.0
- EC50 [2]: 0.372 nM
- IC50 [3]: 31.1 nM
- IC50 [4]: 0.828 nM
- Plasma calcium red (%) 0-12 h ([5]; 30 nmol/kg): 10%
- suppression of plasma calcium level relative to vehicle ([5]; 30 nmol/kg): None of the example compounds at 30 nmol/kg trigger a notable suppression of the calcium level

Structure (SMILES): CC[C@H](C)[C@H](NC(=O)[C@H](C)NC(=O)CNC(=O)[C@H](Cc1ccccc1)NC(=O)[C@H](CC(N)=O)NC(=O)[C@@H]1CCCN1C(=O)[C@H](CO)NC(=O)[C@H](CO)NC(=O)[C@H](Cc1c[nH]cn1)NC(=O)[C@H](CCCNC(=N)N)NC(=O)[C@H](CC(C)C)NC(=O)[C@H](Cc1ccccc1)NC(=O)[C@H](CC(=O)O)NC(=O)[C@H](C)NC(=O)[C@H](CC(C)C)NC(=O)[C@H](CCCNC(=N)N)NC(=O)[C@H](CCC(N)=O)NC(=O)[C@@H](NC(=O)[C@H](C)NC(=O)[C@@H]1CSSC[C@H](NC(=O)[C@@H](N)CCCCNC(=O)CC[C@H](NC(=O)CC[C@H](NC(=O)CCCCCCCCCCCCCCCCCCC(=O)O)C(=O)O)C(=O)O)C(=O)N[C@@H](CC(N)=O)C(=O)N[C@@H]([C@@H](C)O)C(=O)N[C@@H](C)C(=O)N[C@@H]([C@@H](C)O)C(=O)N1)[C@@H](C)O)C(=O)N1CCC[C@H]1C(=O)N[C@@H](CO)C(=O)N[C@@H](CO)C(=O)N[C@H](C(=O)N[C@@H](CC(N)=O)C(=O)N[C@H](C(=O)NCC(=O)N[C@@H](CO)C(=O)N[C@@H](CC(=O)O)C(=O)N[C@H](C(=O)N[C@@H](Cc1ccc(O)cc1)C(N)=O)[C@@H](C)O)C(C)C)[C@@H](C)O [Example 2] (H-K([γGlu-γGlu-C20 diacid])CNTATCATQRLADFLRHSSPNFGAIPSSTNVGSDTY-NH2; disulfide 2-7)
- EC50 [1]: 3 nM
- EC50 [2]: 0.182 nM
- IC50 [3]: 19.5 nM
- IC50 [4]: 0.411 nM
- Plasma calcium red (%) 0-12 h ([5]; 100 nmol/kg): 9%
- suppression of plasma calcium level relative to vehicle ([5]; 100 nmol/kg): does not trigger a notable suppression of the calcium level
